Data as given in the NIST ThermoML archive (doi:10.1016/j.fluid.2012.09.037).
± gives the expanded uncertainty stated by the source.

Test: xn = mol fraction of the nth substance listed
Conditions: 373.2 K, Liquid; for viscosity: Moving piston method; for mass density: Vibrating tube method

CCCCCCCCCC [decane] + O=C=O
Conditions	mass density [kg/m3]	viscosity [mPa·s]
1120 kPa, x2 = 0.075	669 ± 2	0.35 ± 0.04
1950 kPa, x2 = 0.124	671 ± 2	0.33 ± 0.03
3040 kPa, x2 = 0.192	672 ± 2	0.29 ± 0.03
4010 kPa, x2 = 0.246	674 ± 2	0.27 ± 0.03
5110 kPa, x2 = 0.313	676 ± 2	0.25 ± 0.03
6190 kPa, x2 = 0.367	677 ± 2	0.22 ± 0.02

CCCCCCCCCCCCCC [tetradecane] + O=C=O
Conditions	mass density [kg/m3]	viscosity [mPa·s]
960 kPa, x2 = 0.07	707 ± 2	0.6 ± 0.06
2000 kPa, x2 = 0.135	709 ± 2	0.55 ± 0.06
2970 kPa, x2 = 0.198	710 ± 2	0.51 ± 0.05
4000 kPa, x2 = 0.261	711 ± 2	0.47 ± 0.05
4920 kPa, x2 = 0.307	713 ± 2	0.44 ± 0.04
5970 kPa, x2 = 0.358	714 ± 2	0.41 ± 0.04

CCCCCCCCCCCCCC [tetradecane] + CCCCCCCCCC
mass density [kg/m3]
Conditions	x2 = 0	x2 = 0.25	x2 = 0.5	x2 = 0.75
100 kPa	705.4 ± 0.3	697.8 ± 0.3	689.1 ± 0.4	679.1 ± 0.4
1000 kPa	706.5 ± 0.4	698.8 ± 0.4	690.3 ± 0.4	680.3 ± 0.4
2000 kPa	707.6 ± 0.4	699.9 ± 0.4	691.5 ± 0.4	681.6 ± 0.4
3000 kPa	708.6 ± 0.4	701 ± 0.4	692.6 ± 0.4	682.7 ± 0.4
4000 kPa	709.6 ± 0.4	702 ± 0.4	693.7 ± 0.4	683.9 ± 0.4
5000 kPa	710.7 ± 0.4	703.1 ± 0.4	694.8 ± 0.4	685.1 ± 0.4
6000 kPa	711.6 ± 0.4	704.1 ± 0.4	695.9 ± 0.4	686.2 ± 0.4
7000 kPa	712.6 ± 0.4	705.2 ± 0.4	697 ± 0.4	687.3 ± 0.4
8000 kPa	713.6 ± 0.4	706.2 ± 0.4	698 ± 0.4	688.4 ± 0.4
9000 kPa	714.6 ± 0.4	707.2 ± 0.4	699 ± 0.4	689.5 ± 0.4
10000 kPa	715.5 ± 0.4	708.2 ± 0.4	700.1 ± 0.4	690.6 ± 0.4

CCCCCCCCCC [decane] + CCCCCCCCCCCCCC
x1 = 1
Conditions	mass density [kg/m3]
100 kPa	667.1 ± 0.3
1000 kPa	668.4 ± 0.4
2000 kPa	669.6 ± 0.4
3000 kPa	670.9 ± 0.4
4000 kPa	672.1 ± 0.4
5000 kPa	673.4 ± 0.4
6000 kPa	674.5 ± 0.4
7000 kPa	675.7 ± 0.4
8000 kPa	676.9 ± 0.4
9000 kPa	678.1 ± 0.4
10000 kPa	679.2 ± 0.4
